From ChEMBL document CHEMBL1157089, “Antitrypanosomal cyclic polyketide peroxides from the Australian marine sponge Plakortis sp” (J Nat Prod, 2010) come the findings set out here.

Data set [1] relates to Trypanosoma brucei brucei. As to the kind of experiment: Antitrypanosomal activity against Trypanosoma brucei brucei BS427 after 48 hrs by alamar blue assay. It counts as functional, organism-based. As to conditions: BS427, 48 h. (Resazurin is reduced to fluorescent resorufin, in cell work by metabolically active cells.)
Data set [2] deals with HEK293. As to the kind of experiment: Cytotoxicity against HEK293 cells after 48 hrs by alamar blue assay. It counts as cell-based. As to conditions: Homo sapiens, HEK293, 48 h.
Data set [3] can be described thus: Selectivity ratio of IC50 for HEK293 cells to IC50 for Trypanosoma brucei brucei BS427. It counts as ADME, cell-based. As to conditions: human, read-out: Ratio IC50.
Data set [4] deals with HEK293. As to the kind of experiment: Cytotoxicity against HEK293 cells after at 83 uM 48 hrs by alamar blue assay. The data set is classed as cell-based. As to conditions: human, hek293, 48 h.

For `CC[C@@H](/C=C/C(C)=O)C[C@H](C)C[C@@]1(CC)C[C@@H](CC)[C@@H](CC(=O)O)OO1`, the half-inhibitory concentration (IC50) is 49 nM in data set [1] and 5.1 nM in the data set with HEK293 [2]. Further, the selectivity ratio in data set [3] came out at 105.
For `CC[C@H](C[C@H](C)C[C@@]1(CC)C[C@@H](CC)[C@@H](CC(=O)O)OO1)C(=O)O`, in data set [1], the half-inhibitory concentration (IC50) came to 940 nM. The Activity in the data set on HEK293 [4] turned out to be 100%.
Turning to `C=C1CCC[C@@H]2[C@@H](CC[C@@]3(C)CC[C@H]([C@H](C)C(=O)O)OO3)[C@H](C)CC[C@@]12C` [SIGMOSCEPTRELLIN B], the half-inhibitory concentration (IC50) in data set [1] is 510 nM.

Usually IC50 stands for the concentration that inhibits the measured activity by half.
